The values below are quoted from earlier work in patent USRE37410E, “Controlled local delivery of chemotherapeutic agents for treating solid tumors” (priority 1999, dated 2001).

The conditions of this data set: human, in vivo; cited from earlier work.

As for `CC(=O)O[C@H]1C(=O)[C@@]2(C)[C@H]([C@H](OC(=O)c3ccccc3)[C@]3(O)C[C@H](OC(=O)[C@H](O)[C@@H](NC(=O)c4ccccc4)c4ccccc4)C(C)=C1C3(C)C)[C@]1(OC(C)=O)CO[C@@H]1C[C@@H]2O` [paclitaxel], the clearance entry was “extensive non-renal clearance”.
